Legend:
[1] = system: MeV-Alaska; experiment: Virus yield reduction assay, MeV; format: cell-based, measles virus; conditions: for EC50: Measles morbillivirus
[2] = system: influenza A/WSN (H1N1); experiment: microbe, parasite or virus in culture; format: cell-based; conditions: read-out: EC50, reduction of virus yield (WSN)
[3] = system: HPIV3; experiment: Virus yield reduction assay, HPIV3; format: cell-based, human parainfluenzavirus type 3; conditions: Human respirovirus 3
[4] = system: MeV-Alaska; experiment: Viral CPE-reduction assay
Experimental: To rapidly pre-screen small libraries of compound analogs for antiviral activity, Vero-SLAM cells were infected with MeV-Alaska in four replicates per compound concentration in a 96-well plate format at an MOI of 0.4 pfu/cell in the presence of the inhibitor analyzed ranging from 75 μM to 293 nM in two-fold dilutions. At 96 hours post-infection, cell monolayers were subjected to crystal violet staining (0.1% crystal violet in 20% ethanol), and the absorbance of dried plates at 560 nm determined. Virus-induced cytopathicity was then calculated according to the formula [% rel. CPE=100-(experimental-minimum)/(maximum-minimum)*100], with minimum referring to infected, vehicle-treated wells and maximum to mock-infected wells.

[5] = system: MeV-Alaska; experiment: Antiviral activity of compound analogs against MeV-Alaska (tables 1-5); format: cell-based, measles virus; conditions: Table 1
[6] = Measles morbillivirus, read-out: EC50, suppression of viral cytopathic effect (CPE), CPE

For Cc1ccc(NC(=O)[C@H](C)Sc2nc3ccccc3n2-c2ccccc2CN2CCN(C)CC2)c(Cl)c1, the EC50 ([1]; MeV) was 685 nM, the EC50 [2] was 4 nM and the EC50 [3] was 16 nM.
Cc1ccc(NC(=O)[C@@H](C)Sc2nc3ccccc3n2-c2ccc(CCN3CCOCC3)cc2)c(Cl)c1 was tested, and the EC50 [1] was 527 nM and the EC50 [2] was 117 nM.
Work on COc1ccc(-n2c(SC(C)C(=O)Nc3ccc(C)cc3Cl)nc3cccnc32)cc1 (stereo not drawn) [drawing 227] yielded an EC50 [4, 6] of 1650 nM.
With Cc1ccc(NC(=O)C(C)Sc2nc3ccccc3n2N2CCN(C)CC2)c(Cl)c1 (stereo not drawn) the EC50 [4, 6] was greater than 75000 nM.
Cc1ccc(NC(=O)C(C)Sc2nc3ccccc3n2CCN2CCN(C(C)c3ccc(F)cc3)CC2)c(Cl)c1 (stereo not drawn) showed an EC50 [4, 6] of 2170 nM.
In the case of Cc1ccc(NC(=O)C(C)Sc2nc3ccccc3n2CCN2CCNCC2)c(Cl)c1 (stereo not drawn), the EC50 [4, 6] is reported as greater than 75000 nM.
In the case of CNCCc1ccc(-n2c(SC(C)C(=O)Nc3ccc(C)cc3Cl)nc3ccccc32)cc1 (stereo not drawn) [drawing 226], the EC50 [4, 6] is reported as 8720 nM.
For Cc1ccc(NC(=O)C(C)Sc2nc3ccccc3n2-c2ccc(CCNC3CCN(C(=O)OC(C)(C)C)CC3)cc2)c(Cl)c1 (stereo not drawn), the EC50 [4, 6] was 4680 nM.
For COc1ccc(-n2c(SC(C)C(=O)Nc3ccc(C)cc3Cl)nc3ccccc32)cc1 (stereo not drawn) [drawing 253], the EC50 [2] was 13.2 nM and the EC50 [3] was 80 nM.
Cc1ccc(NC(=O)C(C)Sc2nc3ccccc3n2-c2cccc(CCN3CCOCC3)c2)c(Cl)c1 (stereo not drawn) gave an EC50 [1] of 12.9 nM and an EC50 [2] of 0.3 nM.
Work on Cc1ccc(NC(=O)[C@@H](C)Sc2nc3ccccc3n2-c2cccc(CCN3CCOCC3)c2)c(Cl)c1 yielded an EC50 [1] of 212 nM and an EC50 [2] of 108 nM.
In the case of Cc1ccc(NC(=O)C(C)Sc2nc3ccccc3n2C2CCN(C(=O)OC(C)(C)C)CC2)c(Cl)c1 (stereo not drawn) [drawing 220], the EC50 [4, 6] is reported as 600 nM.
For Cc1ccc(NC(=O)C(C)Sc2nc3ccccc3n2-c2ccccc2CO)c(Cl)c1 (stereo not drawn), the EC50 [4, 6] was 800 nM.
Cc1ccc(NC(=O)C(C)Sc2nc3ccccc3n2-c2ccc(CCO)cc2)c(Cl)c1 (stereo not drawn) [drawing 224] gave an EC50 [4, 6] of 2500 nM.
Work on Cc1ccc(NC(=O)C(C)Sc2nc3ccccc3n2-c2ccc(CC=O)cc2)c(Cl)c1 (stereo not drawn) [drawing 225] yielded an EC50 [4, 6] of 8500 nM.
Cc1ccc(NC(=O)C(C)Sc2nc3ccccc3n2-c2ccc(CO)cc2)c(Cl)c1 (stereo not drawn) [drawing 229] was tested, and the EC50 [4, 6] was 3910 nM.
Compound Cc1ccc(NC(=O)C(C)Sc2nc3ccccc3n2-c2ccc(N3CCOCC3)cc2)c(Cl)c1 (stereo not drawn) [drawing 232] has an EC50 [4, 6] of 300 nM.
Cc1ccc(NC(=O)C(C)Sc2nc3ccccc3n2CC2CCNCC2)c(Cl)c1 (stereo not drawn) was tested, and the EC50 [4, 6] was greater than 75000 nM.
Work on CC(Sc1nc2ccccc2n1-c1ccc(CCO)cc1)C(=O)Nc1ccccc1Cl (stereo not drawn) yielded an EC50 [4, 6] of 4680 nM.
CC(Sc1nc2ccccc2n1-c1ccc(CC=O)cc1)C(=O)Nc1ccccc1Cl (stereo not drawn) showed an EC50 [4, 6] of 18800 nM.
Work on Cc1ccc(NC(=O)C(C)Sc2nc3ccccc3n2CC2CCN(C(=O)OC(C)(C)C)CC2)c(Cl)c1 (stereo not drawn) yielded an EC50 [4, 6] of 1310 nM.
For Cc1ccc(NC(=O)C(C)Sc2nc3ccccc3n2[C@H]2CC[C@H](O)CC2)c(Cl)c1 (stereo partly drawn), the EC50 [4, 6] was 2740 nM.
In the case of CCN1CCCC1Cn1c(SC(C)C(=O)Nc2ccc(C)cc2Cl)nc2ccccc21 (stereo not drawn) [drawing 215], the EC50 ([4]; read-out: EC50, suppression of viral cytopathic effect (CPE), CPE) is reported as 5520 nM.
For Cc1ccc(NC(=O)C(C)Sc2nc3ccccc3n2-c2cccc(CCN3CCCCC3)c2)c(Cl)c1 (stereo not drawn), the EC50 [4, 6] was 1520 nM.
Work on CCN1CCCC1Cn1c(SC(C)C(=O)Nc2ccc(C)cc2Cl)nc2ccccc21 (stereo not drawn) [drawing 214] yielded an EC50 [4, 6] of 3580 nM.
Cc1ccc(NC(=O)C(C)Sc2nc3ccccc3n2CCN2CCOCC2)c(Cl)c1 (stereo not drawn) showed an EC50 [4, 6] of 4850 nM.
With Cc1ccc(NC(=O)C(C)Sc2nc3ccccc3n2-c2ccc(CCN3CCOCC3)cc2)c(Cl)c1 (stereo not drawn) the EC50 [1] was 111 nM and the EC50 [2] was 43 nM.
Cc1ccc(NC(=O)C(C)Sc2nc3ccccc3n2-c2cccc(CCN3CCCC3)c2)c(Cl)c1 (stereo not drawn) was tested, and the EC50 [4, 6] was 1660 nM.
Cc1ccc(NC(=O)C(C)Sc2nc3ccccc3n2C2CCCN(CCO)C2)c(Cl)c1 (stereo not drawn) was tested, and the EC50 [4, 6] was 10000 nM.
Cc1ccc(NC(=O)C(C)Sc2nc3ccccc3n2-c2cccc(CCN(C)C)c2)c(Cl)c1 (stereo not drawn) was tested, and the EC50 [4, 6] was 1220 nM.
With Cc1ccc(NC(=O)C(C)Sc2nc3ccccc3n2-c2ccccc2CN2CCN(C)CC2)c(Cl)c1 (stereo not drawn) [drawing 259] the EC50 [1] was 40.8 nM and the EC50 [2] was 8 nM.
COc1ccc(-n2c(SC(CCO)C(=O)Nc3ccccc3)nc3ccccc32)cc1 (stereo not drawn) showed an EC50 [4, 6] of 27800 nM.
Cc1ccc(NC(=O)C(C)Sc2nc3ccccc3n2-c2cccc(CN3CCN(C)CC3)c2)c(Cl)c1 (stereo not drawn) [drawing 252] was tested, and the EC50 [4, 6] was 1280 nM.
For Cc1ccc(NC(=O)[C@H](C)Sc2nc3ccccc3n2-c2cccc(CCN3CCOCC3)c2)c(Cl)c1, the EC50 ([1]; MeV) was 10.8 nM, the EC50 [2] was 1.5 nM and the EC50 [3] was 16 nM.
In the case of Cc1ccc(NC(=O)C(C)Sc2nc3ccccc3n2-c2cccc(CO)c2)c(Cl)c1 (stereo not drawn) [drawing 230], the EC50 [4, 6] is reported as 700 nM.
Compound Cc1ccc(NC(=O)C(C)Sc2nc3ccccc3n2-c2ccc(CCNCCN3CCOCC3)cc2)c(Cl)c1 (stereo not drawn) has an EC50 [4, 6] of 1910 nM.
With Cc1ccc(NC(=O)[C@H](C)Sc2nc3ccccc3n2-c2ccc(CCN3CCOCC3)cc2)c(Cl)c1 the EC50 ([1]; MeV) was 179 nM, the EC50 [2] was 36 nM and the EC50 [3] was 80 nM.
CCN1CCC(Cn2c(SC(C)C(=O)Nc3ccc(C)cc3Cl)nc3ccccc32)CC1 (stereo not drawn) gave an EC50 [4, 6] greater than 75000 nM.
Cc1ccc(NC(=O)C(C)Sc2nc3ccccc3n2C2CCN(C)CC2)c(Cl)c1 (stereo not drawn) [drawing 218] showed an EC50 [4, 6] of 1500 nM.
In the case of COc1ccc(-n2c(S[C@H](C)C(=O)Nc3ccc(C)cc3Cl)nc3ccccc32)cc1, the EC50 [1] is reported as 879 nM and the EC50 [2] is reported as 157 nM.
COCCN1CCCC(n2c(SC(C)C(=O)Nc3ccc(C)cc3Cl)nc3ccccc32)C1 (stereo not drawn) was tested, and the EC50 [4, 6] was 1000 nM.
For CCN1CCN(CCn2c(SC(C)C(=O)Nc3ccc(C)cc3Cl)nc3ccccc32)CC1 (stereo not drawn), the EC50 [4, 6] was 18800 nM.
In the case of Cc1ccc(NC(=O)C(C)Sc2nc3ccccc3n2[C@H]2CCCC[C@@H]2O)c(Cl)c1 (stereo partly drawn), the EC50 [4, 6] is reported as 872 nM.
In the case of Cc1ccc(NC(=O)C(C)Sc2nc3ccccc3n2C2CC[N+](C)(C)CC2)c(Cl)c1 (stereo not drawn), the EC50 [4, 6] is reported as greater than 75000 nM.
COc1ccc(-n2c(S[C@@H](C)C(=O)Nc3ccc(C)cc3Cl)nc3ccccc32)cc1 was tested, and the EC50 ([1]; MeV) was 37.3 nM, the EC50 [2] was 5 nM and the EC50 [3] was 80 nM.
Cc1ccc(NC(=O)C(C)Sc2nc3ccccc3n2C2CCCCC2)c(Cl)c1 (stereo not drawn) [drawing 216] was tested, and the EC50 [4, 6] was 290 nM.
With Cc1ccc(NC(=O)C(C)Sc2nc3ccccc3n2C2CCNCC2)c(Cl)c1 (stereo not drawn) [drawing 219] the EC50 [4, 6] was greater than 75000 nM.
In the case of Cc1ccc(NC(=O)[C@@H](C)Sc2nc3ccccc3n2-c2ccccc2CN2CCN(C)CC2)c(Cl)c1, the EC50 [1] is reported as 466 nM and the EC50 [2] is reported as 120 nM.
In the case of O=C1Cc2c([nH]c3ccc([N+](=O)[O-])cc23)-c2ccccc2N1 [Alsterpaullone, reference compound], the “reduction in MeV yields” value ([1]; highest concentration assessed (50 μM), Vero-Slam cells) is reported as “only a marginal reduction”.
Cc1ccc(NC(=O)C(C)Sc2nc3ccccc3n2CC2CCN(Cc3ccc(F)cc3)CC2)c(Cl)c1 (stereo not drawn) showed an EC50 [4, 6] of 1180 nM.
Cc1ccc(NC(=O)C(C)Sc2nc3ccccc3n2CC2CCN(C(C)c3ccc(F)cc3)CC2)c(Cl)c1 (stereo not drawn) gave an EC50 [4, 6] of 1170 nM.
In the case of Cc1ccc(NC(=O)C(C)Sc2nc3ccccc3n2CCN2CCN(C(=O)OC(C)(C)C)CC2)c(Cl)c1 (stereo not drawn), the EC50 [4, 6] is reported as 1320 nM.
In the case of COc1ccc(-n2c(SC(C)C(=O)Nc3ccc(C)cc3C)nc3ccccc32)cc1 (stereo not drawn) [Compound 45], the EC50 [5] is reported as 1100 nM.

— US9365523B2, “Imidazolyl amide compounds and uses related thereto” (priority 2011, dated 2016)
